# Where two headings read alike, the source gives them in different places.
# Columns and labels:
# Format in all cases: binding
# PCP3 sites = experiment: [3H]TCP displacement, cerebellum membranes, 2-site model, PCP3; details: [3H]TCP 2.5 nM, rat cerebellum
# Experimental: (§1) The affinity of the compounds for their potential bond site, can be evaluated by quantifying their ability to displace a specific tritiated label of a given site. The bond experiences are carried out by competition between the molecule to be tested and the appropriate radioligand on a membrane preparation rich in sites to be studied. The concentration of the derivative tested which inhibits 50% of the bond of the radioligand to the receptor is called IC50.
# (§2) For the experimental conditions and membrane preparation techniques used, reference can be made to the literature (Brain Res., 378, 133-141 (1986); Eur. J. Pharm., 81, 531-542 (1982)).
# (§3) For low affinity sites, the monosite treatment used led to incoherent results. The experimental data have therefore been reprocessed using non-linear regression (Marquardt-Levenberg algorithm) with Sigma Plot software (Jandel) according to a model with two noted sites of interaction PCP2 and PCP3. This processing proves to be more suitable than a monosite treatment (Student test: p<0.05) over a set of 3 to 4 experiments for each compound tested. Over all the experiments, the two site populations are found in a relative proportion to 68.0% (±1.5) for the PCP2 sites and 31.2% (±1.5) for the PCP3 sites.
# (§4) For the PCP2 and PCP3 sites, the preparation originates from rat cerebella. Not having a specific label, only [^3H]TCP can be used. A more significant concentration of tritiated ligand (2.5 nM versus 1 nM in the cortex) is used to ensure that all the PCP2 and PCP3 sites are occupied.
# PCP2 sites = experiment: [3H]TCP displacement, cerebellum membranes, 2-site model, PCP2; details: [3H]TCP 2.5 nM, rat cerebellum
# Experimental: as §1, §2, §3, §4
# PCP1 sites = target: T1, PCP1 sites (Rattus norvegicus, UniProt P35439); experiment: [3H]TCP displacement, cortex membranes, 1-site model; details: for cortex 1 site nH: Hill number of the cortex displacement curve
# T1 construct: membrane preparations originating from anterior cerebrum homogenates of rats; from tissue; host or cells: rat anterior cerebrum (forebrain/cortex) membranes
# Experimental: as §1, with “studied.” for “studied. The concentration of the derivative tested which inhibits 50% of the bond of the radioligand to the receptor is called IC50.”
# For the PCP1 sites, the tritiated label used is [^3H]TCP and the tests are carried out on membrane preparations originating from anterior cerebrum homogenates of rats.
# PCP receptors = target: T2, PCP receptors (Rattus norvegicus, UniProt P35439); experiment: Percentage inhibition on PCP receptors ([3H]TCP, cerebral cortex membranes); details: compound 10 μM
# T2 construct: membrane preparations originating from cerebral cortex of a rat; from tissue; host or cells: rat cerebral cortex membranes
# Experimental: Percentage inhibition on PCP receptors:
# The tritiated label used is [^3H]TCP and the tests are carried out on membrane preparations originating from cerebral cortex of a rat (Brain Res., 378, 133-141 (1986).
# [1] = [3H]TCP 1 nM, rat cortex (anterior cerebrum) membranes, read-out: cortex 1 site IC50
# [2] = cortex 1 site IC50, [3H]TCP 1 nM, rat cortex membranes, bound in μM
# [3] = cortex 1 site IC50, [3H]TCP 1 nM, rat cortex (anterior cerebrum) membranes
structure (smiles),measurement,setting,value
"CC1CCCN(C2(c3cccs3)CCSCC2)C1 (racemic) [Ex 2, (±)-N-[4-(2-thienyl)-tetrahydro-4H-thiopyran-4-yl]-3-methyl-piperidine]",IC50,PCP3 sites; two-site non-linear regression,2.85 µM
same,IC50,PCP2 sites; two-site non-linear regression,0.265 µM
same,cortex 1 site nH,PCP1 sites,1.14
same,IC50,PCP1 sites; [1],0.132 µM
"CC1CCCN(C2(c3cc4ccccc4s3)CCSCC2)C1 (racemic) [Ex 5, (±)-N-[4-(2-benzothiophenyl)-tetrahydro-4H-thiopyran-4-yl]-3-methyl-piperidine]",IC50,PCP3 sites; two-site non-linear regression,0.581 µM
same,IC50,PCP2 sites; bound in μM,> 100 µM
same,IC50,PCP1 sites; [2],> 100 µM
"CC1CCCN(C2(c3cccs3)CCCCC2)C1 (racemic) [Ex 22 (±), N-[1-(2-thienyl)-cyclohexan-1-yl]-3-methyl piperidine]",IC50,PCP3 sites; two-site non-linear regression,1.45 µM
same,IC50,PCP2 sites; two-site non-linear regression,0.0473 µM
same,cortex 1 site nH,PCP1 sites,1.09
same,IC50,PCP1 sites; [3],0.0055 µM
"CC1CSCCC1(c1cccs1)N1CCCCC1 (single isomer, unassigned) [Ex 1 (majority), N-[4-(2-thienyl)-3-methyl-tetrahydro-4H-thiopyran-4-yl] piperidine]",cortex 1 site nH,PCP1 sites,0.94
same,IC50,PCP1 sites; [3],17.2 µM
"CC1CSCCC1(c1cccs1)N1CCCCC1 (single isomer, unassigned) [Ex 1 (minority), N-[4-(2-thienyl)-3-methyl-tetrahydro-4H-thiopyran-4-yl] piperidine]",IC50,PCP3 sites; two-site non-linear regression,0.0176 µM
same,IC50,PCP2 sites; two-site non-linear regression,1.35 µM
same,cortex 1 site nH,PCP1 sites,0.89
same,IC50,PCP1 sites; [3],0.0268 µM
"CC1CCCN(C2(c3cccs3)CCCCC2)C1 (single isomer, unassigned) [Ex 22 (+), N-[1-(2-thienyl)-cyclohexan-1-yl]-3-methyl piperidine]",IC50,PCP3 sites; two-site non-linear regression,0.808 µM
same,IC50,PCP2 sites; two-site non-linear regression,0.0283 µM
same,cortex 1 site nH,PCP1 sites,1.04
same,IC50,PCP1 sites; [3],0.0052 µM
"CC1CCCN(C2(c3cccs3)CCCCC2)C1 (single isomer, unassigned) [Ex 22 (−), N-[1-(2-thienyl)-cyclohexan-1-yl]-3-methyl piperidine]",cortex 1 site nH,PCP1 sites,1.08
same,IC50,PCP1 sites; [3],0.158 µM
"C[C@@H]1CCCN(C2(c3cccs3)CCSCC2)C1 [Ex 4, R-(+)-N-[4-(2-thienyl)-tetrahydro-4H-thiopyran-4-yl]-3-methyl-piperidine]",IC50,PCP3 sites; two-site non-linear regression,2.08 µM
same,IC50,PCP2 sites; two-site non-linear regression,0.0532 µM
same,cortex 1 site nH,PCP1 sites,0.84
same,IC50,PCP1 sites; [1],0.024 µM
"C[C@@H]1CCCN(C2(c3cc4ccccc4s3)CCSCC2)C1 [Ex 6, R-(+)-N-[4-(2-benzothiophenyl)-tetrahydro-4H-thiopyran-4-yl]-3-methyl-piperidine]",IC50,PCP3 sites; two-site non-linear regression,0.28 µM
same,IC50,PCP2 sites; bound in μM,> 100 µM
same,IC50,PCP1 sites; [2],> 100 µM
"C[C@H]1CCCN(C2(c3cc4ccccc4s3)CCSCC2)C1 [Ex 7, S-(−)-N-[4-(2-benzothiophenyl)-tetrahydro-4H-thiopyran-4-yl]-3-methyl-piperidine]",IC50,PCP3 sites; two-site non-linear regression,0.639 µM
same,IC50,PCP2 sites; two-site non-linear regression,84 µM
same,cortex 1 site nH,PCP1 sites,0.73
same,IC50,PCP1 sites; [3],82.8 µM
"OCC1CCCN(C2(c3cccs3)CCCCC2)C1 (stereo not drawn) [Ex 8, N-[1-(2-thienyl)-cyclohexan-1-yl]-3-hydroxymethyl-piperidine]",IC50,PCP3 sites; two-site non-linear regression,0.0124 µM
same,IC50,PCP2 sites; two-site non-linear regression,2.24 µM
same,cortex 1 site nH,PCP1 sites,0.96
same,IC50,PCP1 sites; [1],0.0284 µM
"c1coc(C2(N3CCCCC3)CCSCC2)c1 [Ex 9, N-[4-(2-furyl)-tetrahydro-4H-thiopyran-4-yl]-piperidine]",IC50,PCP3 sites; two-site non-linear regression,0.0138 µM
same,inhibition at 10 µM,PCP receptors,96%
same,IC50,PCP2 sites; two-site non-linear regression,1.02 µM
same,cortex 1 site nH,PCP1 sites,0.87
same,IC50,PCP1 sites; [1],0.133 µM
"c1ccc2oc(C3(N4CCCCC4)CCSCC3)cc2c1 [Ex 10, N-[4-(2-benzofuryl)-tetrahydro-4H-thiopyran-4-yl]-piperidine]",IC50,PCP3 sites; two-site non-linear regression,0.0591 µM
same,inhibition at 10 µM,PCP receptors,18%
same,IC50,PCP2 sites; two-site non-linear regression,26.6 µM
same,cortex 1 site nH,PCP1 sites,0.9
same,IC50,PCP1 sites; [1],27.5 µM
"Cc1ccc(C2(N3CCCCC3)CCSCC2)s1 [Ex 11, N-[4-(5-methyl-thiophen-2-yl)-tetrahydro-4H-thiopyran-4-yl]-piperidine]",IC50,PCP3 sites; bound in μM,> 100 µM
same,IC50,PCP2 sites; two-site non-linear regression,0.532 µM
same,cortex 1 site nH,PCP1 sites,0.97
same,IC50,PCP1 sites; [1],0.462 µM
"Cc1csc(C2(N3CCCCC3)CCSCC2)c1 [Ex 12, N-[4-(4-methyl-thiophen-2-yl)-tetrahydro-4H-thiopyran-4-yl]-piperidine]",IC50,PCP3 sites; two-site non-linear regression,0.0054 µM
same,IC50,PCP2 sites; two-site non-linear regression,0.772 µM
same,cortex 1 site nH,PCP1 sites,0.93
same,IC50,PCP1 sites; [1],0.0778 µM
"CCNC1(c2cccs2)CCCCC1 [Ex 17, N-ethyl-1-(2-thienyl)-cyclohexylamine]",IC50,PCP3 sites; two-site non-linear regression,47.6 µM
same,IC50,PCP2 sites; two-site non-linear regression,0.055 µM
same,cortex 1 site nH,PCP1 sites,0.77
same,IC50,PCP1 sites; [3],0.0209 µM
"c1coc(C2(N3CCCCC3)CCCCC2)c1 [Ex 18, N-[1-(2-furyl)-cyclohexan-1-yl] piperidine]",IC50,PCP3 sites; two-site non-linear regression,0.0056 µM
same,IC50,PCP2 sites; two-site non-linear regression,0.187 µM
same,cortex 1 site nH,PCP1 sites,0.83
same,IC50,PCP1 sites; [1],0.0078 µM
"c1csc(C2(N3CCCCC3)CCSCC2)c1 [Ex 19, N-[4-(2-thienyl)-tetrahydro-4H-thiopyran-4-yl] piperidine]",IC50,PCP3 sites; two-site non-linear regression,0.0085 µM
same,IC50,PCP2 sites; two-site non-linear regression,0.586 µM
same,cortex 1 site nH,PCP1 sites,1.05
same,IC50,PCP1 sites; [1],0.0716 µM
"c1csc(C2(N3CCCCC3)CCOCC2)c1 [Ex 20, N-[4-(2-thienyl)-tetrahydro-4H-pyran-4-yl] piperidine]",IC50,PCP3 sites; two-site non-linear regression,0.035 µM
same,IC50,PCP2 sites; two-site non-linear regression,5.84 µM
same,cortex 1 site nH,PCP1 sites,0.98
same,IC50,PCP1 sites; [1],1.22 µM
"c1csc(C2(N3CCCCC3)CCCSC2)c1 (stereo not drawn) [Ex 21, N-[3-(2-thienyl)-tetrahydro-4H-thiopyran-3-yl] piperidine]",IC50,PCP3 sites; two-site non-linear regression,0.008 µM
same,IC50,PCP2 sites; two-site non-linear regression,0.659 µM
same,cortex 1 site nH,PCP1 sites,1.00
same,IC50,PCP1 sites; [1],0.0734 µM
"c1csc(C2(N3CCCCC3)CCCCC2)c1 [TCP, N-(1-(2-thienyl)cyclohexyl)piperidine, reference compound]",IC50,PCP3 sites; two-site non-linear regression,3.72 µM
same,IC50,PCP2 sites; two-site non-linear regression,0.059 µM
